Experimental data published in ChEMBL document CHEMBL1122534, “Synthesis of 4-substituted 2H-naphth[1,2-b]-1,4-oxazines, a new class of dopamine agonists” (J Med Chem, 1984).

Biological target: Dopamine receptor (Rattus norvegicus) (UniProt P25115+P19020+P30729+P18901+P61169)
Test: ED50 for induction of contralateral turning behavior in 6-hydroxydopamine (6-OHDA) lesioned rats by ip administration.
Assay type: functional, organism-based

## CCN1CCOC2c3ccccc3CC[C@H]21 (some centres not stated)
  ED50: 1.7 mg/kg

## c1ccc2c(c1)CC[C@H]1NCCOC21 (some centres not stated)
  ED50: 30 mg/kg
